The record followed here is US8013053B2, “Water-based inks for ink-jet printing” (Kao Corporation, priority 2005, dated 2011).

Data set [1] can be described thus: Surface tension of water containing nonionic organic compound. The format is physicochemical. To be noted: 25° C.; for Surface tension: water containing 0.001% by weight of the nonionic organic compound. The source says: (4) Method of Measuring Surface Tension of Water Containing Nonionic Organic Compound
Data set [2] in a line: Solubility of nonionic organic compound in water. To be noted: for Solubility: in 100 g of water at 25° C.; for solubility in 100 g of water: 25° C. In kind it is physicochemical. The source says: (3) Method of Measuring Solubility of Nonionic Organic Compound

`OCCCCCCCCO` [1,8-octanediol, reference compound] displayed a Surface tension in data set [1] of 70.7 mN/m. Further, the Solubility in data set [2] was 1 g/100 g.

Consider Decanoic acid monogriceride, for which, in data set [1], the “surface tension of water containing 0.001% by weight of the nonionic organic compound” value came to 65 mN/m and the Surface tension was found to be 65 mN/m.

In turn, `CCCCC(O)CO` (stereo not drawn) [1,2-hexanediol, reference compound] returned a Surface tension in data set [1] of 71.2 mN/m. In data set [2], the Solubility result was “≧6 g/100 g”.

Consider `CCCCCCCCC(O)CO` (stereo not drawn) [1,2-decanediol], for which, in data set [1], the “surface tension of water containing 0.001% by weight of the nonionic organic compound” value came to 55 mN/m and the Surface tension came to 55 mN/m. Besides, in data set [2], the “solubility in 100 g of water” value turned out to be 0.055 g and the Solubility is 0.055 g/100 g.

Take `CC(C)CCCCCCCOCC(O)CO` (stereo not drawn) [Isodecyl monoglyceryl ether]: in data set [1], the “surface tension of water containing 0.001% by weight of the nonionic organic compound” value is reported as 57.8 mN/m and the Surface tension came to 57.8 mN/m. In data set [2], the “solubility in 100 g of water” value is given as 0.05 g and the Solubility is 0.05 g/100 g.

For `CCCCC(CC)COCC(O)CO` (stereo not drawn) [2-ethylhexyl monoglyceryl ether], in data set [1], the “surface tension of water containing 0.001% by weight of the nonionic organic compound” value stood at 62 mN/m and the Surface tension came out at 62 mN/m. Besides, in data set [2], the “solubility in 100 g of water” value is listed as 0.15 g and the Solubility turned out to be 0.15 g/100 g.

In the case of `CCCCCCCCCCC(O)CO` (stereo not drawn) [1,2-dodecanediol], in data set [1], the “surface tension of water containing 0.001% by weight of the nonionic organic compound” value was determined as 47.1 mN/m and the Surface tension stood at 47.1 mN/m. For the same molecule, in data set [2], the “solubility in 100 g of water” value is on record as 0.001 g and the Solubility is listed as 0.001 g/100 g.

Turning to `CCCCCCC(O)CO` (stereo not drawn) [1,2-octanediol], in data set [1], the “surface tension of water containing 0.001% by weight of the nonionic organic compound” value worked out at 65 mN/m and the Surface tension came to 65 mN/m. Besides, in data set [2], the “solubility in 100 g of water” value turned out to be 0.20 g and the Solubility was determined as 0.2 g/100 g.

Lauric acid monogriceride: in data set [1], the “surface tension of water containing 0.001% by weight of the nonionic organic compound” value came out at 63 mN/m and the Surface tension was determined as 63 mN/m. In data set [2], the “solubility in 100 g of water” value turned out to be 0.005 g and the Solubility came out at 0.12 g/100 g.
